According to article PMC11879280, “Antimicrobial activity of peptoids against Metallo-β-lactamase-producing Klebsiella pneumoniae, Acinetobacter baumannii, Pseudomonas aeruginosa, and other WHO priority pathogens, including Candida auris” (Journal of Applied Microbiology, 2025):
≈ marks a conversion by molar mass, not a printed value. Read-outs that look alike come from different tables or passages of the source. Square brackets hold non-standard residues; d marks the D form. Peptide text beside a SMILES is read from it. Nspe = C[C@H](NCC(=O)O)c1ccccc1; NDecylGly = CCCCCCCCCCNCC(=O)O; Nlys = NCCCCNCC(=O)O

Legend:
C. auris CBS12373 = assay: Broth microdilution MIC; assay type: cell-based, Candida auris
A. baumannii 008 = test system: A. baumannii 008
Outline: (§1)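 Suspensions of 5 × 10^5 CFU ml^−1 were incubated with compounds for 16–20 h at 37°C and 120 rpm, the medium being MHB for peptidomimetics and cation-adjusted MHB for antibiotics. Wells were afterwards log10 diluted and plated to obtain MBC.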

K. pneumoniae JIE2709 = test system: K. pneumoniae JIE2709
Outline: as §1

En. cloacae 005 = test system: En. cloacae 005
Outline: as §1

P. aeruginosa 216 = test system: P. aeruginosa 216
Outline: as §1

[1] = test system: Enteroc. faecalis NCTC 13 379
Outline: as §1

E. coli 0010 = test system: E. coli 0010
Outline: as §1

A. baumannii 007 = test system: A. baumannii 007
Outline: as §1

A. baumannii 005 = test system: A. baumannii 005
Outline: as §1

E. coli 0011 = test system: E. coli 0011
Outline: as §1

En. cloacae 003 = test system: En. cloacae 003
Outline: as §1

E. coli 005 = test system: E. coli 005
Outline: as §1

P. aeruginosa AR-1270 = test system: P. aeruginosa AR-1270
Outline: as §1

S. aureus 117 = test system: S. aureus 117
Outline: as §1

E. coli 0015 = test system: E. coli 0015
Outline: as §1

S. aureus 105 = test system: S. aureus 105
Outline: as §1

S. aureus 04 = test system: S. aureus 04
Outline: as §1

A. baumannii 006 = test system: A. baumannii 006
Outline: as §1

A. baumannii ATCC 19 606 = test system: A. baumannii ATCC 19 606
Outline: as §1

[2] = test system: horse red blood cells (RBCs); assay: Haemolysis assay; assay type: cell-based
Protocol: The haemolytic activity of the peptidomimetics was performed to determine mammalian cell safety. This assay used horse red blood cells (RBCs) (Sigma–Aldrich, USA) as described previously (Willcox et al. [2008], Chongsiriwatana et al. [2017], Yasir et al. [2019b]). RBCs were washed three times with PBS at 470 g for 5 min. Peptoids (0.5–250 μg ml^−1) were prepared in PBS and added to washed RBCs, then incubated at 37°C for 4 h. After incubation, cells were centrifuged at 1057 g for 10 min, and the supernatant’s OD at 540 nm was measured for lysis. PBS-only RBCs served as the negative control (no haemolysis), and Milli-Q water-treated RBCs as the positive control (100% lysis). Percent haemolysis was calculated as: (ODT − ODNC)/(ODPC − ODNC) × 100, where ODT, ODNC, and ODPC are the absorbances of the test, negative, and positive controls, respectively. This experiment was performed in triplicate.

[3] = CBS 12 373, RPMI 1640 with MOPS, 5 × 10^3 CFU ml^−1, ≥90% reduction (≥50% for fluconazole)
[4] = A. baumannii 008, MHB (melimine/Mel4 with 0.2% BSA, 0.01% acetic acid), mean MIC
[5] = K. pneumoniae JIE2709, MHB (melimine/Mel4 with 0.2% BSA, 0.01% acetic acid), mean MIC
[6] = En. cloacae 005, MHB (melimine/Mel4 with 0.2% BSA, 0.01% acetic acid), mean MIC
[7] = P. aeruginosa 216, MHB (melimine/Mel4 with 0.2% BSA, 0.01% acetic acid), mean MIC
[8] = Enteroc. faecalis NCTC 13 379, MHB (melimine/Mel4 with 0.2% BSA, 0.01% acetic acid), mean MIC
[9] = E. coli 0010, MHB (melimine/Mel4 with 0.2% BSA, 0.01% acetic acid), mean MIC
[10] = A. baumannii 007, MHB (melimine/Mel4 with 0.2% BSA, 0.01% acetic acid), mean MIC
[11] = A. baumannii 005, MHB (melimine/Mel4 with 0.2% BSA, 0.01% acetic acid), mean MIC
[12] = E. coli 0011, MHB (melimine/Mel4 with 0.2% BSA, 0.01% acetic acid), mean MIC
[13] = En. cloacae 003, MHB (melimine/Mel4 with 0.2% BSA, 0.01% acetic acid), mean MIC
[14] = E. coli 005, MHB (melimine/Mel4 with 0.2% BSA, 0.01% acetic acid), mean MIC
[15] = P. aeruginosa AR-1270, MHB (melimine/Mel4 with 0.2% BSA, 0.01% acetic acid), mean MIC
[16] = S. aureus 117, MHB (melimine/Mel4 with 0.2% BSA, 0.01% acetic acid), mean MIC
[17] = E. coli 0015, MHB (melimine/Mel4 with 0.2% BSA, 0.01% acetic acid), mean MIC
[18] = S. aureus 105, MHB (melimine/Mel4 with 0.2% BSA, 0.01% acetic acid), mean MIC
[19] = S. aureus 004, MHB (melimine/Mel4 with 0.2% BSA, 0.01% acetic acid), mean MIC
[20] = A. baumannii 006, MHB (melimine/Mel4 with 0.2% BSA, 0.01% acetic acid), mean MIC
[21] = A. baumannii ATCC 19 606, MHB (melimine/Mel4 with 0.2% BSA, 0.01% acetic acid), mean MIC
[22] = horse RBCs in PBS, 37°C, 4 h, OD 540 nm, triplicate, best fit curve
[23] = horse RBCs in PBS, 37°C, 4 h, value in brackets

SMILES: C[C@@H](c1ccccc1)N(CC(N)=O)C(=O)CN(CCCCN)C(=O)CN(C(=O)CN(C(=O)CN(CCCCN)C(=O)CN(C(=O)CN(C(=O)CN(CCCCN)C(=O)CN(C(=O)CN(C(=O)CNCCCCN)[C@@H](C)c1ccccc1)[C@@H](C)c1ccccc1)[C@@H](C)c1ccccc1)[C@@H](C)c1ccccc1)[C@@H](C)c1ccccc1)[C@@H](C)c1ccccc1 [TM6] (H-[Nlys][Nspe][Nspe][Nlys][Nspe][Nspe][Nlys][Nspe][Nspe][Nlys][Nspe]-NH2)
- MIC against C. auris (C. auris CBS12373; [3]): 2 µg/mL
- MIC against C. auris (C. auris CBS12373; CBS 12 373, value in brackets): 1.2 µmol/L
- MIC of peptidomimetics (A. baumannii 008; [4]): 15.6 µg/mL
- MIC of peptidomimetics (A. baumannii 008; A. baumannii 008, value in brackets): 9.4 µmol/L
- MIC of peptidomimetics (K. pneumoniae JIE2709; [5]): 31.3 µg/mL
- MIC of peptidomimetics (K. pneumoniae JIE2709; K. pneumoniae JIE2709, value in brackets): 18.8 µmol/L
- MIC of peptidomimetics (En. cloacae 005; [6]): 15.6 µg/mL
- MIC of peptidomimetics (En. cloacae 005; En. cloacae 005, value in brackets): 9.4 µmol/L
- MIC of peptidomimetics (P. aeruginosa 216; [7]): 15.6 µg/mL
- MIC of peptidomimetics (P. aeruginosa 216; P. aeruginosa 216, value in brackets): 9.4 µmol/L
- MIC of peptidomimetics [1, 8]: 31.25 µg/mL
- MIC of peptidomimetics ([1]; Enteroc. faecalis NCTC 13 379, value in brackets): 18.8 µmol/L
- MIC of peptidomimetics (E. coli 0010; [9]): 62.5 µg/mL
- MIC of peptidomimetics (E. coli 0010; E. coli 0010, value in brackets): 37.7 µmol/L
- MIC of peptidomimetics (A. baumannii 007; [10]): 7.8 µg/mL
- MIC of peptidomimetics (A. baumannii 007; A. baumannii 007, value in brackets): 4.7 µmol/L
- MIC of peptidomimetics (A. baumannii 005; [11]): 7.8 µg/mL
- MIC of peptidomimetics (A. baumannii 005; A. baumannii 005, value in brackets): 4.7 µmol/L
- MIC of peptidomimetics (E. coli 0011; [12]): 15.6 µg/mL
- MIC of peptidomimetics (E. coli 0011; E. coli 0011, value in brackets): 9.4 µmol/L
- MIC of peptidomimetics (En. cloacae 003; [13]): 15.6 µg/mL
- MIC of peptidomimetics (En. cloacae 003; En. cloacae 003, value in brackets): 9.4 µmol/L
- MIC of peptidomimetics (E. coli 005; [14]): 62.5 µg/mL
- MIC of peptidomimetics (E. coli 005; E. coli 005, value in brackets): 37.7 µmol/L
- MIC of peptidomimetics (P. aeruginosa AR-1270; [15]): 31.3 µg/mL
- MIC of peptidomimetics (P. aeruginosa AR-1270; P. aeruginosa AR-1270, value in brackets): 18.8 µmol/L
- MIC of peptidomimetics (S. aureus 117; [16]): 7.8 µg/mL
- MIC of peptidomimetics (S. aureus 117; S. aureus 117, value in brackets): 4.7 µmol/L
- MIC of peptidomimetics (E. coli 0015; [17]): 62.5 µg/mL
- MIC of peptidomimetics (E. coli 0015; E. coli 0015, value in brackets): 37.7 µmol/L
- MIC of peptidomimetics (S. aureus 105; [18]): 7.8 µg/mL
- MIC of peptidomimetics (S. aureus 105; S. aureus 105, value in brackets): 4.7 µmol/L
- MIC of peptidomimetics (S. aureus 04; [19]): 7.8 µg/mL
- MIC of peptidomimetics (S. aureus 04; S. aureus 004, value in brackets): 4.7 µmol/L
- MIC of peptidomimetics (A. baumannii 006; [20]): 7.8 µg/mL
- MIC of peptidomimetics (A. baumannii 006; A. baumannii 006, value in brackets): 4.7 µmol/L
- MIC of peptidomimetics (A. baumannii ATCC 19 606; [21]): 7.8 µg/mL
- MIC of peptidomimetics (A. baumannii ATCC 19 606; A. baumannii ATCC 19 606, value in brackets): 4.7 µmol/L
- HD10 (10% haemolytic dose) [2, 22]: 43.2 µg/mL
- HD50 (50% haemolytic dose) [2, 22]: > 256 µg/mL
- HD10 (10% haemolytic dose) [2, 23]: 26.1 µmol/L
- HD50 (50% haemolytic dose) [2, 23]: > 154.4 µmol/L

SMILES: CCCCCCCCCCNCC(=O)N(CCCCN)CC(=O)N(CC(=O)N(CC(=O)N(CCCCN)CC(=O)N(CC(=O)N(CC(N)=O)[C@@H](C)c1ccccc1)[C@@H](C)c1ccccc1)[C@@H](C)c1ccccc1)[C@@H](C)c1ccccc1 [TM8] (H-[NDecylGly][Nlys][Nspe][Nspe][Nlys][Nspe][Nspe]-NH2)
- MIC against C. auris (C. auris CBS12373; [3]): 3.9 µg/mL
- MIC90 (C. auris CBS12373; CBS12373): 15.6 µg/mL (≈ 14 µM)
- MIC against C. auris (C. auris CBS12373; CBS12373): 3.5 µmol/L
- MIC of peptidomimetics (A. baumannii 008; 008): 7.0 µmol/L
- MIC of peptidomimetics (A. baumannii 008; [4]): 7.8 µg/mL
- MIC of peptidomimetics (K. pneumoniae JIE2709; JIE2709): 14.0 µmol/L
- MIC of peptidomimetics (K. pneumoniae JIE2709; [5]): 15.6 µg/mL
- MIC of peptidomimetics (En. cloacae 005): 14.0 µmol/L
- MIC of peptidomimetics (En. cloacae 005; [6]): 15.6 µg/mL
- MIC of peptidomimetics (P. aeruginosa 216; 216): 7.0 µmol/L
- MIC of peptidomimetics (P. aeruginosa 216; [7]): 7.8 µg/mL
- MIC of peptidomimetics [1, 8]: 7.8 µg/mL
- MIC of peptidomimetics ([1]; NCTC 13): 7.0 µmol/L
- MIC of peptidomimetics (E. coli 0010; 0010): 14.0 µmol/L
- MIC of peptidomimetics (E. coli 0010; [9]): 15.6 µg/mL
- MIC of peptidomimetics (A. baumannii 007; 007): 3.5 µmol/L
- MIC of peptidomimetics (A. baumannii 007; [10]): 3.9 µg/mL
- MIC of peptidomimetics (A. baumannii 005; 005): 7.0 µmol/L
- MIC of peptidomimetics (A. baumannii 005; [11]): 7.8 µg/mL
- MIC of peptidomimetics (E. coli 0011; 0011): 14.0 µmol/L
- MIC of peptidomimetics (E. coli 0011; [12]): 15.6 µg/mL
- MIC of peptidomimetics (En. cloacae 003): 7.0 µmol/L
- MIC of peptidomimetics (En. cloacae 003; [13]): 7.8 µg/mL
- MIC of peptidomimetics (E. coli 005; 005): 7.0 µmol/L
- MIC of peptidomimetics (E. coli 005; [14]): 7.8 µg/mL
- MIC of peptidomimetics (P. aeruginosa AR-1270; AR-1270): 14.0 µmol/L
- MIC of peptidomimetics (P. aeruginosa AR-1270; [15]): 15.6 µg/mL
- MIC of peptidomimetics (S. aureus 117; 117): 3.5 µmol/L
- MIC of peptidomimetics (S. aureus 117; [16]): 3.9 µg/mL
- MIC of peptidomimetics (E. coli 0015; 0015): 7.0 µmol/L
- MIC of peptidomimetics (E. coli 0015; [17]): 7.8 µg/mL
- MIC of peptidomimetics (S. aureus 105; 105): 3.5 µmol/L
- MIC of peptidomimetics (S. aureus 105; [18]): 3.9 µg/mL
- MIC of peptidomimetics (S. aureus 04; 04): 3.5 µmol/L
- MIC of peptidomimetics (S. aureus 04; [19]): 3.9 µg/mL
- MIC of peptidomimetics (A. baumannii 006; 006): 3.5 µmol/L
- MIC of peptidomimetics (A. baumannii 006; [20]): 3.9 µg/mL
- MIC of peptidomimetics (A. baumannii ATCC 19 606; [21]): 3.9 µg/mL
- MIC of peptidomimetics (A. baumannii ATCC 19 606; ATCC 19): 3.5 µmol/L
- HD10 (10% haemolytic dose) [2]: 7.2 µmol/L
- HD50 (50% haemolytic dose) [2]: 24.4 µmol/L
- HD10 (10% haemolytic dose) ([2]; red cells of horse, 4 h): 8 µg/mL
- HD50 (50% haemolytic dose) ([2]; red cells of horse, 4 h): 27.2 µg/mL
